What was measured:
TYK2/JAK1 [1] = assay: IFNα-induced pSTAT1 in CD19+ B cells of human PBMCs; type: cell-based
Protocol: The reaction was terminated by collecting cells for surface staining. Cells were stained with anti-CD3 FITC (300406; Biolegend, San Diego, CA, USA), anti-CD19 APC (555415; BD Biosciences) or aqua fluorescent reactive dye BV421 (L34966A; Invitrogen, Carlsbad, CA, USA) antibodies for 20 min. After washing, fixation buffer (557870; BD Biosciences) was added and incubated for 10 min. Cells were washed and permeabilized on ice using Perm III Buffer (558050; BD Biosciences). Cells were stained with PE anti-PSTAT1 antibody (562069; BD Biosciences) for 30 min and analyzed by flow cytometry.

JAK1/JAK3 [2] = assay: IL-2-stimulated pSTAT5 in human PBMC; type: cell-based; details: @10μM
Protocol: With regard to IL-2-stimulated JAK1/3 activation in human PBMCs, after 1 h of incubation with QL-1200186, human PBMCs were stimulated with human IL-2 (20 ng/mL; C013; Novoprotein) for 20 min.
(§1) The stimulations stated above were terminated with prewarmed Lyse/Fix Buffer (558,049; BD Biosciences, San Jose, CA, USA) for 10 min. Cells were stained with an anti-cluster of differentiation (CD)3 fluorescein isothiocyanate (FITC) antibody (required for PBMCs but not for the other cell types), washed, and permeabilized on ice using Perm III Buffer (558,050; BD Biosciences) prior to staining with an Alexa Fluor 647 anti-phosphorylated (p)STAT5 (pY694) antibody for 30 min and analyzed by flow cytometry. Phosphorylation of STAT5 was quantified by the median fluorescence intensity (MFI) after gating on the CD3-positive population.

TYK2/JAK1 [3] = assay: IFNα HEK293 (HEK-Blue IFN-α/β) reporter gene assay; type: cell-based, human
Protocol: HEK-Blue™ IFN-α/β cells were used to determine the activity of QL-1200186. After 24 h of incubation with QL-1200186, HEK-Blue™ IFN-α/β cells (Invivogen; NKB-IFNAB) were stimulated with human IFNα (200 U/mL; catalog number: 11200–2; PBL Assay Science; Piscataway, NJ, USA) for 6 h. Stimulation of HEK-Blue IFN-α/β cells with human IFNα activates the JAK/STAT/ISGF3 pathway and subsequently induces the production of SEAP. Levels of SEAP in the supernatant were readily assessable using QUANTI-Blue™ Solution (InvivoGen, San Diego, CA, USA).

logD7.4 = type: physicochemical; details: pH 7.4
[4] = tested on: imiquimod-induced psoriasis-like skin inflammation; assay: Imiquimod-induced mouse model of psoriasis (PASI); type: in vivo, mice
Protocol: Healthy male BALB/c mice (18–20 g) were divided randomly into three groups of eight according to body weight using Excel™ (Office™; Microsoft). After 1 week of adaptive feeding, mice received a daily topical dose of 62.5 mg of 5% imiquimod cream ([…]; Aldara®; 3 M Pharmaceuticals, Maplewood, MN, USA) on the shaved back and left ear for 7 consecutive days. Control mice were treated similarly with vehicle cream (Vaseline lanette creme; Fagron, Amsterdam, the Netherlands). Mice in the treatment group were given QL-1200186 (5 mg/kg or 1 mg/kg) orally twice a day (p.o., b.i.d.).
The Psoriasis Area and Severity Index (PASI) consists of erythema, scaling and skin thickness measurements. Mice were evaluated from day 1 when imiquimod was given for 7 consecutive days. The thickness of the mouse skin was measured using a micrometer. The PK parameters were also measured.

[5] = tested on: IL-12/IL-18-driven IFNγ production; assay: IL-12/IL-18-induced IFNγ release in mice; type: in vivo
Protocol: Healthy female, specific pathogen-free C57BL/6 mice (6–8 weeks) were intraperitoneally (i.p.) injected with IL-12 and IL-18 to drive IFNγ production. Mice were numbered, weighed and divided randomly into seven groups of five according to body weight using Excel™ (Office™; Microsoft, Redmond, WA, USA). One hour after drug administration, IL-12 (0.01 μg/mouse) was i.p. injected. One hour later, recombinant IL-18 (0.1 μg/mouse) was injected. Whole blood was collected 3 h later and centrifuged (300 g, 10 min, 4 °C), and serum was collected. IFNγ expression in serum was determined by a CBA Flex kit (BD Biosciences).

[6] = Pharmacokinetic study in C57BL/6 mice; type: in vivo
Protocol: The PK study was conducted using healthy male C57BL/6 mice (18–22 g, n = 6). Mice were fed and given free access to water prior to dosing. QL-1200186 was administered via oral or intravenous routes at doses of 10 mg/kg and 1 mg/kg, respectively. Blood samples were collected at 0.0833, 0.25, 0.5, 1, 2, 4, 8 and 24 h from the saphenous vein. Plasma was separated within 1 h of sampling by centrifugation at 1000 g. Liquid chromatography–tandem mass spectrometry of the sample was carried out on a mass spectrometer (API 5500; AB Sciex, Framingham, MA, USA). Chromatographic separation was achieved using a C18 column (2.6 µm, 50 × 3.0 mm; Kinetex; Phenomenex, Torrance, CA, USA). The main PK parameters were calculated by WinNonlin 8.0 (Certara, Princeton, NJ, USA).

TYK2/JAK2 = assay: IL-12/IL-18-induced IFNγ production in human whole blood, ELISA; type: cell-based; details: IL-12-induced
Protocol: The inhibitory effect of QL-1200186 on IL-12/IL-18-induced IFNγ production in NK cells or human whole blood was determined by enzyme-linked immunosorbent assay (ELISA). NK92 cells were stimulated with recombinant human IL-12 (2 ng/mL; 200–12; PeproTech, Cranbury, NJ, USA) and recombinant human IL-18 (5 ng/mL; 9124-IL-050/CF; R&D Systems, Minneapolis, MN, USA) with or without QL-1200186 for 24 h at 37 °C. For human whole blood cells, whole blood (200 μL) was preincubated with the compound for 1 h and then stimulated with recombinant human IL-12 (2 ng/mL) or recombinant human IL-18 (10 ng/mL) for 24 h. After centrifugation, the supernatant was collected, and IFNγ production in the supernatant was measured with human IFNγ ELISA kits according to the manufacturer’s instructions (Biolegend, 430,104).

JAK1/JAK3 [7] = assay: IL-2-stimulated pSTAT5 in human whole blood; type: cell-based
Protocol: With respect to IL-2-stimulated JAK1/3 activation in human whole blood cells, whole blood (50 μL) was preincubated with compounds for 30 min and then stimulated with IL-2 (20 ng/mL) for 15 min.
as §1

CNC(=O)c1cnc2cc1Nc1cc(cc(-c3ccn(C)n3)c1OC)CCOCc1cccc(n1)N2 [QL-1200186, 5^6-methoxy-N-methyl-5^5-(1-methyl-1H-pyrazol-3-yl)-8-oxa-2,4-diaza-1(2,6),3(2,4)-dipyridina-5(1,3)-benzenacyclononaphane-3^5-carboxamide]
IC50 (TYK2/JAK1 [1]): 1.43 nM
IL-2- pSTAT5 in PBMC (JAK1/JAK3) inhibition (JAK1/JAK3 [2]): ~18% inhibition @10μM
IC50 (TYK2/JAK1 [3]): 3.9 nM
logD7.4 (logD7.4): 3.6
psoriasis severity according to the thickness score ([4]; day 7): significantly alleviated psoriasis severity
psoriasis-like inflammatory symptoms (erythema, scaling, thickening; PASI) ([4]; vs imiquimod group, p.o., b.i.d., n = 8): significantly improved psoriasis-like inflammatory symptoms
inhibition of serum IFNγ production ([5]; oral 10 mg/kg): 97.8%
inhibition of serum IFNγ production ([5]; oral, 0.1 mg/kg): 77.1%
inhibition of serum IFNγ production ([5]; oral, 1 mg/kg): 86.9%
AUC ([6]; intravenous 1 mg/kg): 1482 ng·h/mL
CL ([6]; intravenous 1 mg/kg): 11.6 mL/min/kg
MRTInf ([6]; intravenous 1 mg/kg): 1.22 h
T1/2 ([6]; intravenous 1 mg/kg): 1.45 h
Vss ([6]; intravenous 1 mg/kg): 0.842 L/kg
AUC ([6]; oral 10 mg/kg): 20320 ng·h/mL
Cmax ([6]; oral 10 mg/kg): 3543 ng/mL
F (bioavailability) ([6]; oral 10 mg/kg): 137%
MRTInf ([6]; oral 10 mg/kg): 4.34 h
T1/2 ([6]; oral 10 mg/kg): 2.73 h
IFNγ production in human whole blood (TYK2/JAK2): significantly reduced
activity in IL-2-mediated JAK1/JAK3 signaling (JAK1/JAK3 [7]): no activity

— publication PMC10578023 (Cell Communication and Signaling : CCS, 2023)
